Test results as given in paper doi:10.1101/2025.01.28.635346v1 (bioRxiv, 2025).
Bridge positions count the residues as written; N and C are the ends. Peptide text beside a SMILES is read from it.

Tests used:
Type in all cases: binding
[1] = biological target: integrin αvβ8 (Homo sapiens, UniProt P06756+P26012); test: AlphaLISA competition assay vs LAP, biotinylated αvβ8
[2] = biological target: integrin αvβ6 (Homo sapiens, UniProt P06756+P18564); test: AlphaLISA competition assay vs LAP, biotinylated αvβ6
[3] = biological target: integrin αvβ3 (Homo sapiens, UniProt P05106+P06756); test: AlphaLISA competition assay vs LAP, biotinylated αvβ3

Compound	IC50 [1]	IC50 [2]	IC50 [3]
CC[C@H](C)[C@H](NC(=O)CNC(=O)[C@@H](NC(=O)[C@H](Cc1ccccc1)NC(=O)[C@H](Cc1ccc(O)cc1)NC(=O)[C@@H]1CCC(=O)NCC(=O)NCC(=O)N[C@@H](C)C(=O)NCC(=O)N[C@@H](Cc2cnc[nH]2)C(=O)N[C@@H](C(C)C)C(=O)N2CCC[C@H]2C(=O)N1)C(C)C)C(=O)NCC(=O)N[C@H](C(=O)N1CCC[C@H]1C(=O)N[C@H](C(=O)N[C@@H](CO)C(=O)N[C@@H](Cc1ccccc1)C(=O)N[C@@H](Cc1ccc(O)cc1)C(=O)NCC(=O)O)[C@@H](C)CC)[C@@H](C)O [lassotide 1, MccJ25, reference compound] (GGAGHVPEYFVGIGTPISFYG-OH; lactam N-8)	> 10 µM	> 10 µM	> 10 µM
CC[C@H](C)[C@H](NC(=O)[C@@H]1CCCN1C(=O)[C@H](CC(C)C)NC(=O)[C@H](CC(=O)O)NC(=O)CNC(=O)[C@H](CCCNC(=N)N)NC(=O)[C@@H](NC(=O)[C@H](Cc1ccccc1)NC(=O)[C@H](Cc1ccc(O)cc1)NC(=O)[C@@H]1CCC(=O)NCC(=O)NCC(=O)N[C@@H](C)C(=O)NCC(=O)N[C@@H](Cc2c[nH]cn2)C(=O)N[C@@H](C(C)C)C(=O)N2CCC[C@H]2C(=O)N1)C(C)C)C(=O)N[C@@H](CO)C(=O)N[C@@H](Cc1ccccc1)C(=O)N[C@@H](Cc1ccc(O)cc1)C(=O)NCC(=O)O [lassotide 2] (GGAGHVPEYFVRGDLPISFYG-OH; lactam N-8; C-terminus assumed)		0.263 µM	0.001 µM
CC[C@H](C)[C@H](NC(=O)[C@@H]1CCCN1C(=O)[C@H](Cc1ccccc1)NC(=O)[C@H](CC(=O)O)NC(=O)CNC(=O)[C@H](CCCNC(=N)N)NC(=O)[C@@H](NC(=O)[C@H](Cc1ccccc1)NC(=O)[C@H](Cc1ccc(O)cc1)NC(=O)[C@@H]1CCC(=O)NCC(=O)NCC(=O)N[C@@H](C)C(=O)NCC(=O)N[C@@H](Cc2c[nH]cn2)C(=O)N[C@@H](C(C)C)C(=O)N2CCC[C@H]2C(=O)N1)C(C)C)C(=O)N[C@@H](CO)C(=O)N[C@@H](Cc1ccccc1)C(=O)N[C@@H](Cc1ccc(O)cc1)C(=O)NCC(=O)O [lassotide 3] (GGAGHVPEYFVRGDFPISFYG-OH; lactam N-8; C-terminus assumed)	0.295 µM	0.253 µM	0.001 µM
CC[C@H](C)[C@H](NC(=O)[C@@H]1CCCN1C(=O)[C@@H](NC(=O)[C@H](CC(C)C)NC(=O)[C@H](CC(=O)O)NC(=O)CNC(=O)[C@H](CCCNC(=N)N)NC(=O)[C@H](Cc1ccccc1)NC(=O)[C@H](Cc1ccc(O)cc1)NC(=O)[C@@H]1CCC(=O)NCC(=O)NCC(=O)N[C@@H](C)C(=O)NCC(=O)N[C@@H](Cc2c[nH]cn2)C(=O)N[C@@H](C(C)C)C(=O)N2CCC[C@H]2C(=O)N1)[C@@H](C)O)C(=O)N[C@@H](CO)C(=O)N[C@@H](Cc1ccccc1)C(=O)N[C@@H](Cc1ccc(O)cc1)C(=O)NCC(=O)O [lassotide 7] (GGAGHVPEYFRGDLTPISFYG-OH; lactam N-8; C-terminus assumed)	0.485 µM	2.04 µM	0.571 µM
CC[C@H](C)[C@H](NC(=O)[C@H](CC(C)C)NC(=O)[C@H](CC(=O)O)NC(=O)CNC(=O)[C@H](CCCNC(=N)N)NC(=O)CNC(=O)[C@@H](NC(=O)[C@H](Cc1ccccc1)NC(=O)[C@H](Cc1ccc(O)cc1)NC(=O)[C@@H]1CCC(=O)NCC(=O)NCC(=O)N[C@@H](C)C(=O)NCC(=O)N[C@@H](Cc2c[nH]cn2)C(=O)N[C@@H](C(C)C)C(=O)N2CCC[C@H]2C(=O)N1)C(C)C)C(=O)N[C@@H](CO)C(=O)N[C@@H](Cc1ccccc1)C(=O)N[C@@H](Cc1ccc(O)cc1)C(=O)NCC(=O)O [lassotide 8] (GGAGHVPEYFVGRGDLISFYG-OH; lactam N-8; C-terminus assumed)	0.466 µM	0.478 µM	2.56 µM
CC[C@H](C)[C@H](NC(=O)[C@@H]1CCCN1C(=O)[C@@H](NC(=O)[C@H](CCCNC(=N)N)NC(=O)CNC(=O)[C@H](CC(=O)O)NC(=O)[C@H](CC(C)C)NC(=O)[C@H](Cc1ccccc1)NC(=O)[C@H](Cc1ccc(O)cc1)NC(=O)[C@@H]1CCC(=O)NCC(=O)NCC(=O)N[C@@H](C)C(=O)NCC(=O)N[C@@H](Cc2c[nH]cn2)C(=O)N[C@@H](C(C)C)C(=O)N2CCC[C@H]2C(=O)N1)[C@@H](C)O)C(=O)N[C@@H](CO)C(=O)N[C@@H](Cc1ccccc1)C(=O)N[C@@H](Cc1ccc(O)cc1)C(=O)NCC(=O)O [lassotide 9] (GGAGHVPEYFLDGRTPISFYG-OH; lactam N-8; C-terminus assumed)	1.3 µM	> 10 µM	> 10 µM
CC[C@H](C)[C@H](NC(=O)[C@@H]1CCCN1C(=O)[C@H](CC(C)C)NC(=O)[C@H](CC(=O)O)NC(=O)[C@@H]1CCCN1C(=O)[C@H](CCCNC(=N)N)NC(=O)[C@@H](NC(=O)[C@H](Cc1ccccc1)NC(=O)[C@H](Cc1ccc(O)cc1)NC(=O)[C@@H]1CCC(=O)NCC(=O)NCC(=O)N[C@@H](C)C(=O)NCC(=O)N[C@@H](Cc2c[nH]cn2)C(=O)N[C@@H](C(C)C)C(=O)N2CCC[C@H]2C(=O)N1)C(C)C)C(=O)N[C@@H](CO)C(=O)N[C@@H](Cc1ccccc1)C(=O)N[C@@H](Cc1ccc(O)cc1)C(=O)NCC(=O)O [lassotide 10] (GGAGHVPEYFVRPDLPISFYG-OH; lactam N-8; C-terminus assumed)	> 10 µM	> 10 µM	> 10 µM
CC[C@H](C)[C@H](NC(=O)CNC(=O)[C@@H](NC(=O)[C@H](Cc1ccccc1)NC(=O)[C@H](Cc1ccc(O)cc1)NC(=O)[C@@H]1CCC(=O)NCC(=O)NCC(=O)N[C@@H](CCCNC(=N)N)C(=O)NCC(=O)N[C@@H](CC(=O)O)C(=O)N[C@@H](CC(C)C)C(=O)N2CCC[C@H]2C(=O)N1)C(C)C)C(=O)NCC(=O)N[C@H](C(=O)N1CCC[C@H]1C(=O)N[C@H](C(=O)N[C@@H](CO)C(=O)N[C@@H](Cc1ccccc1)C(=O)N[C@@H](Cc1ccc(O)cc1)C(=O)NCC(=O)O)[C@@H](C)CC)[C@@H](C)O [lassotide 11] (GGRGDLPEYFVGIGTPISFYG-OH; lactam N-8; C-terminus assumed)	> 10 µM	> 10 µM	> 10 µM
